# Data: article PMC4844575, “The influence of different metal-chelate conjugates of pentixafor on the CXCR4 affinity” (EJNMMI Research, 2016)
# Read-outs that look alike come from different tables or passages of the source. Where a SMILES comes first, the peptide text is derived from it. Side-chain parts run from the residue outwards. [ ]: non-standard residue; d: D form. The star is where a group is joined. DFO(CSNHC6H4NHCS) = CC(=O)N(O)CCCCCNC(=O)CCC(=O)N(O)CCCCCNC(=O)CCC(=O)N(O)CCCCCNC(=S)Nc1ccc(NC(=S)*)cc1; DOTAGA = O=C(O)CN1CCN(CC(=O)O)CCN(C(CCC(=O)*)C(=O)O)CCN(CC(=O)O)CC1; DOTA = O=C(O)CN1CCN(CC(=O)O)CCN(CC(=O)*)CCN(CC(=O)O)CC1; NODAGA = O=C(O)CN1CCN(CC(=O)O)CCN(C(CCC(=O)*)C(=O)O)CC1; X2 = O=C(O)CN1CCN(CC(=O)O)CCN(Cc2ccc(NC(=S)*)cc2)CC1; NOTA = O=C(O)CN1CCN(CC(=O)O)CCN(CC(=O)*)CC1; 2Nal = N[C@@H](Cc1ccc2ccccc2c1)C(=O)O; dNMeOrn = CN[C@H](CCCN)C(=O)O; 4Amb = NCc1ccc(C(=O)O)cc1
# Experiments:
# [1] = biological target: T1, CXCR4 (Homo sapiens, UniProt P61073); experiment: competitive binding assay on Jurkat cells with [125I]FC131 as radioligand
# T1 construct: endogenous in cells; host or cells: Jurkat T-cell leukemia cells
# T1 sequence (P61073 whole entry): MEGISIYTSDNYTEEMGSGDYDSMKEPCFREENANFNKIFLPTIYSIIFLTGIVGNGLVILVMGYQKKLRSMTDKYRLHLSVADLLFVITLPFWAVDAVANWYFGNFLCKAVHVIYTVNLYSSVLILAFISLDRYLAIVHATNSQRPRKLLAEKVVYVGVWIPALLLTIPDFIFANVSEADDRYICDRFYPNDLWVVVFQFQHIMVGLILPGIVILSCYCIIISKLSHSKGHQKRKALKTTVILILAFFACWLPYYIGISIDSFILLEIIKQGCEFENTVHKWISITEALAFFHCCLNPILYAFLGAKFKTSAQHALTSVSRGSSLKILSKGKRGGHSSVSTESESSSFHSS
# Experimental: For in vitro experiments, the Jurkat T - cell line was used. […] The cell line was cultured at 37 °C in a humidified atmosphere with 5 % CO2 and passaged two to three times a week, depending on the cell count.
# Jurkat cells (4 × 10^5 cells per vial) were incubated with the respective peptide of interest at the final concentrations ranging from 10^−11 to 10^−5 M and app. […] The total sample volume was 250 μL. After an incubation time of 120 min, the vials were centrifuged at 1300 rpm (Heraeus Megafuge, Thermo) for 3 min and the supernatant was removed. The cells were washed twice with 200 μL ice-cold Hank’s balanced salt solution (HBSS). After each washing step, the samples were centrifuged and the supernatant removed. Finally, the amount of displaced and bound radioligand in the combined fractions of the supernatant and the cell pellet was quantified. The half maximal inhibitory concentration (IC50) values were determined using GraphPad Prism software.
# [2] = tested on: hCXCR4; details: read-out: affinity towards hCXCR4; cited from earlier work
# [3] = tested on: OH1 human small cell lung cancer tumor-bearing mice; details: mouse, in vivo, 1 h; cited from earlier work
# [4] = Jurkat T-cells, 4 × 10^5 cells per vial, app. 0.1 nM [125I]FC131, 120 min incubation, mean ± SD (n = 3)
Compound,"IC50 [1, 4] [nM]",further results
CN1C(=O)[C@@H](Cc2ccc(O)cc2)NC(=O)CNC(=O)[C@H](Cc2ccc3ccccc3c2)NC(=O)[C@H](CCCNC(=N)N)NC(=O)[C@H]1CCCNC(=O)c1ccc(CNC(=O)CCC(C(=O)O)N2CCN(CC(=O)O)CCN(CC(=O)O)CC2)cc1 (some centres unmarked) [[^natCu^2+]4] [metal not drawn] (cyclo([2Nal]G[dY][dNMeOrn]([4Amb-NODAGA])R)),343 ± 10,
CN1C(=O)[C@@H](Cc2ccc(O)cc2)NC(=O)CNC(=O)[C@H](Cc2ccc3ccccc3c2)NC(=O)[C@H](CCCNC(=N)N)NC(=O)[C@H]1CCCNC(=O)c1ccc(CNC(=O)CN2CCN(CC(=O)O)CCN(CC(=O)O)CC2)cc1 [Compound 3] (cyclo([2Nal]G[dY][dNMeOrn]([4Amb-NOTA])R)),,IC50 [1]: 253 ± 49 nM
CN1C(=O)[C@@H](Cc2ccc(O)cc2)NC(=O)CNC(=O)[C@H](Cc2ccc3ccccc3c2)NC(=O)[C@H](CCCNC(=N)N)NC(=O)[C@H]1CCCNC(=O)c1ccc(CNC(=O)CN2CCN(CC(=O)O)CCN(CC(=O)O)CCN(CC(=O)O)CC2)cc1 [[^natBi^3+]1] [metal not drawn] (cyclo([dY][dNMeOrn]([4Amb-DOTA])R[2Nal]G)),22.1 ± 7,
CN1C(=O)[C@@H](Cc2ccc(O)cc2)NC(=O)CNC(=O)[C@H](Cc2ccc3ccccc3c2)NC(=O)[C@H](CCCNC(=N)N)NC(=O)[C@H]1CCCNC(=O)c1ccc(CNC(=O)CN2CCN(CC(=O)O)CCN(CC(=O)O)CCN(CC(=O)O)CC2)cc1 [[^natCu^2+]1] [metal not drawn] (cyclo([dY][dNMeOrn]([4Amb-DOTA])R[2Nal]G)),131 ± 11,
CN1C(=O)[C@@H](Cc2ccc(O)cc2)NC(=O)CNC(=O)[C@H](Cc2ccc3ccccc3c2)NC(=O)[C@H](CCCNC(=N)N)NC(=O)[C@H]1CCCNC(=O)c1ccc(CNC(=S)Nc2ccc(CC(CN(CCN(CC(=O)O)CC(=O)O)CC(=O)O)N(CC(=O)O)CC(=O)O)cc2)cc1 (some centres unmarked) [Compound 7],,IC50 [1]: 200 ± 73 nM
CN1C(=O)[C@@H](Cc2ccc(O)cc2)NC(=O)CNC(=O)[C@H](Cc2ccc3ccccc3c2)NC(=O)[C@H](CCCNC(=N)N)NC(=O)[C@H]1CCCNC(=O)c1ccc(CNC(=O)CCC(C(=O)O)N2CCN(CC(=O)O)CCN(CC(=O)O)CCN(CC(=O)O)CC2)cc1 (some centres unmarked) [[^natLu^3+]2] [metal not drawn] (cyclo([2Nal]G[dY][dNMeOrn]([4Amb-DOTAGA])R)),188 ± 2.8,
CN1C(=O)[C@@H](Cc2ccc(O)cc2)NC(=O)CNC(=O)[C@H](Cc2ccc3ccccc3c2)NC(=O)[C@H](CCCNC(=N)N)NC(=O)[C@H]1CCCNC(=O)c1ccc(CNC(=O)CN2CCN(CC(=O)O)CCN(CC(=O)O)CC2)cc1 [[^natCu^2+]3] [metal not drawn] (cyclo([2Nal]G[dY][dNMeOrn]([4Amb-NOTA])R)),46.1 ± 26,
CN1C(=O)[C@@H](Cc2ccc(O)cc2)NC(=O)CNC(=O)[C@H](Cc2ccc3ccccc3c2)NC(=O)[C@H](CCCNC(=N)N)NC(=O)[C@H]1CCCNC(=O)c1ccc(CNC(=O)CN2CCN(CC(=O)O)CCN(CC(=O)O)CC2)cc1 [[^natF]AlF-3] (cyclo([2Nal]G[dY][dNMeOrn]([4Amb-NOTA])R)),220 ± 57,
CN1C(=O)[C@@H](Cc2ccc(O)cc2)NC(=O)CNC(=O)[C@H](Cc2ccc3ccccc3c2)NC(=O)[C@H](CCCNC(=N)N)NC(=O)[C@H]1CCCNC(=O)c1ccc(CNC(=O)CCC(C(=O)O)N2CCN(CC(=O)O)CCN(CC(=O)O)CCN(CC(=O)O)CC2)cc1 (some centres unmarked) [[^natY^3+]2] [metal not drawn] (cyclo([2Nal]G[dY][dNMeOrn]([4Amb-DOTAGA])R)),126 ± 89,
CN1C(=O)[C@@H](Cc2ccc(O)cc2)NC(=O)CNC(=O)[C@H](Cc2ccc3ccccc3c2)NC(=O)[C@H](CCCNC(=N)N)NC(=O)[C@H]1CCCNC(=O)c1ccc(CNC(=O)CCC(C(=O)O)N2CCN(CC(=O)O)CCN(CC(=O)O)CCN(CC(=O)O)CC2)cc1 (some centres unmarked) [Compound 2] (cyclo([2Nal]G[dY][dNMeOrn]([4Amb-DOTAGA])R)),,IC50 [1]: 654 ± 263 nM
CN1C(=O)[C@@H](Cc2ccc(O)cc2)NC(=O)CNC(=O)[C@H](Cc2ccc3ccccc3c2)NC(=O)[C@H](CCCNC(=N)N)NC(=O)[C@H]1CCCNC(=S)Nc1ccc(CN2CCN(CC(=O)O)CCN(CC(=O)O)CC2)cc1 [[^natF]AlF-5] (cyclo([2Nal]G[dY][dNMeOrn](X2)R)),329 ± 49,
CN1C(=O)[C@@H](Cc2ccc(O)cc2)NC(=O)CNC(=O)[C@H](Cc2ccc3ccccc3c2)NC(=O)[C@H](CCCNC(=N)N)NC(=O)[C@H]1CCCNC(=O)c1ccc(CNC(=O)CCC(C(=O)O)N2CCN(CC(=O)O)CCN(CC(=O)O)CC2)cc1 (some centres unmarked) [Compound 4] (cyclo([2Nal]G[dY][dNMeOrn]([4Amb-NODAGA])R)),,IC50 [1]: 275 ± 106 nM
CN1C(=O)[C@@H](Cc2ccc(O)cc2)NC(=O)CNC(=O)[C@H](Cc2ccc3ccccc3c2)NC(=O)[C@H](CCCNC(=N)N)NC(=O)[C@H]1CCCNC(=O)c1ccc(CNC(=O)CCC(C(=O)O)N2CCN(CC(=O)O)CCN(CC(=O)O)CCN(CC(=O)O)CC2)cc1 (some centres unmarked) [[^natBi^3+]2] [metal not drawn] (cyclo([2Nal]G[dY][dNMeOrn]([4Amb-DOTAGA])R)),29.4 ± 7.6,
"CC(=O)N(O)CCCCCNC(=O)CCC(=O)N(O)CCCCCNC(=O)CCC(=O)N(O)CCCCCNC(=S)Nc1ccc(NC(=S)NCc2ccc(C(=O)NCCC[C@@H]3C(=O)N[C@@H](CCCNC(=N)N)C(=O)N[C@@H](Cc4ccc5ccccc5c4)C(=O)NCC(=O)N[C@H](Cc4ccc(O)cc4)C(=O)N3C)cc2)cc1 [[^natZr^4+]8, metal not drawn] (cyclo([2Nal]G[dY][dNMeOrn]([4Amb-DFO(CSNHC6H4NHCS)])R))",148 ± 27,
CN1C(=O)[C@@H](Cc2ccc(O)cc2)NC(=O)CNC(=O)[C@H](Cc2ccc3ccccc3c2)NC(=O)[C@H](CCCNC(=N)N)NC(=O)[C@H]1CCCNC(=O)c1ccc(CNC(=O)CCC(C(=O)O)N2CCN(CC(=O)O)CCN(CC(=O)O)CCN(CC(=O)O)CC2)cc1 (some centres unmarked) [[^natCu^2+]2] [metal not drawn] (cyclo([2Nal]G[dY][dNMeOrn]([4Amb-DOTAGA])R)),1160 ± 220,
CN1C(=O)[C@@H](Cc2ccc(O)cc2)NC(=O)CNC(=O)[C@H](Cc2ccc3ccccc3c2)NC(=O)[C@H](CCCNC(=N)N)NC(=O)[C@H]1CCCNC(=O)c1ccc(CNC(=O)CN2CCN(CC(=O)O)CCN(CC(=O)O)CCN(CC(=O)O)CC2)cc1 [[^natLu^3+]1] [metal not drawn] (cyclo([dY][dNMeOrn]([4Amb-DOTA])R[2Nal]G)),40.9 ± 12,
CN1C(=O)[C@@H](Cc2ccc(O)cc2)NC(=O)CNC(=O)[C@H](Cc2ccc3ccccc3c2)NC(=O)[C@H](CCCNC(=N)N)NC(=O)[C@H]1CCCNC(=O)c1ccc(CNC(=O)CN2CCN(CC(=O)O)CCN(CC(=O)O)CC2)cc1 [[^natGa^3+]3] [metal not drawn] (cyclo([2Nal]G[dY][dNMeOrn]([4Amb-NOTA])R)),17.8 ± 7.7,
CC(=O)N(O)CCCCCNC(=O)CCC(=O)N(O)CCCCCNC(=O)CCC(=O)N(O)CCCCCNC(=S)Nc1ccc(NC(=S)NCc2ccc(C(=O)NCCC[C@@H]3C(=O)N[C@@H](CCCNC(=N)N)C(=O)N[C@@H](Cc4ccc5ccccc5c4)C(=O)NCC(=O)N[C@H](Cc4ccc(O)cc4)C(=O)N3C)cc2)cc1 [Compound 8] (cyclo([2Nal]G[dY][dNMeOrn]([4Amb-DFO(CSNHC6H4NHCS)])R)),,IC50 [1]: 105 ± 35 nM
cyclo(-D-Tyr-N-Me-D-Orn(aminomethylbenzoyl (AMB)-DOTA)-L-Arg-L-2-Nal-Gly-) [[^68Ga]pentixafor],,IC50 [2]: 5 nM; uptake in CXCR4-expressing tissue (tumor) [3]: 6.16 % ± 1.16 % ID/g
CN1C(=O)[C@@H](Cc2ccc(O)cc2)NC(=O)CNC(=O)[C@H](Cc2ccc3ccccc3c2)NC(=O)[C@H](CCCNC(=N)N)NC(=O)[C@H]1CCCNC(=O)c1ccc(CNC(=O)CCC(C(=O)O)N2CCN(CC(=O)O)CCN(CC(=O)O)CC2)cc1 (some centres unmarked) [[^natGa^3+]4] [metal not drawn] (cyclo([2Nal]G[dY][dNMeOrn]([4Amb-NODAGA])R)),342 ± 72,
CN1C(=O)[C@@H](Cc2ccc(O)cc2)NC(=O)CNC(=O)[C@H](Cc2ccc3ccccc3c2)NC(=O)[C@H](CCCNC(=N)N)NC(=O)[C@H]1CCCNC(=S)Nc1ccc(CN2CCN(CC(=O)O)CCN(CC(=O)O)CC2)cc1 [Compound 5] (cyclo([2Nal]G[dY][dNMeOrn](X2)R)),,IC50 [1]: 115 ± 24 nM
CN1C(=O)[C@@H](Cc2ccc(O)cc2)NC(=O)CNC(=O)[C@H](Cc2ccc3ccccc3c2)NC(=O)[C@H](CCCNC(=N)N)NC(=O)[C@H]1CCCNC(=O)c1ccc(CNC(=O)CCC(C(=O)O)N2CCN(CC(=O)O)CCN(CC(=O)O)CCN(CC(=O)O)CC2)cc1 (some centres unmarked) [[^natGa^3+]2] [metal not drawn] (cyclo([2Nal]G[dY][dNMeOrn]([4Amb-DOTAGA])R)),380 ± 102,
